Measurements taken from patent US4626505A, “Selectable markers for yeast transformation” (E. I. Du Pont de Nemours and Company, priority 1984, dated 1986).

Test system: industrial S. cerevisiae strains ATCC 7754 and ATCC 4921
Experiment: Growth/resistance of industrial yeast strains, untransformed and transformed with pCP2-4-10
Format: cell-based, Saccharomyces cerevisiae
Settings: for resistance of industrial transformants to structurally related sulfonylurea growth inhibitors: ATCC 7754 and ATCC 4921 transformed with pCP2-4-10
Protocol: […]. […] The optimum period of incubation with glusulase for producing spheroplasts was determined to be approximately 3 hours.
The resulting industrial transformants were resistant to other, structurally related sulfonylurea growth inhibitors in addition to sulfometuron methyl. These inhibitors included N-[(4-methoxy-6-methyl-pyrimidin-2-yl)aminocarbonyl]-2-nitrobenzenesulfonamide; N-[(4,6-dimethoxy-pyrimidin-2-yl)-aminocarbonyl]-2-methylthiobenzenesulfonamide; and 2-[[(4-chloro-6-methoxypyrimidine-2-yl)amino carbonyl]aminosulfonyl]benzoic acid, ethyl ester.

SMILES	resistance of industrial transformants to structurally related sulfonylurea growth inhibitors	growth of untransformed wild-type strains (30 μg/mL, ATCC 7754 and ATCC 4921, untransformed)
CCOC(=O)c1ccccc1S(=O)(=O)NC(=O)Nc1nc(Cl)cc(OC)n1 [2-[[(4-chloro-6-methoxypyrimidine-2-yl)aminocarbonyl]aminosulfonyl]benzoic acid, ethyl ester]	resistant	–
COc1cc(C)nc(NC(=O)NS(=O)(=O)c2ccccc2[N+](=O)[O-])n1 [N-[(4-methoxy-6-methyl-pyrimidin-2-yl)aminocarbonyl]-2-nitrobenzenesulfonamide]	resistant	–
COC(=O)c1ccccc1S(=O)(=O)NC(=O)Nc1nc(C)cc(C)n1 [sulfometuron methyl]	–	completely inhibited
COc1cc(OC)nc(NC(=O)NS(=O)(=O)c2ccccc2SC)n1 [N-[(4,6-dimethoxy-pyrimidin-2-yl)-aminocarbonyl]-2-methylthiobenzenesulfonamide]	resistant	–
